Key:
Aspergillis = settings: aqueous suspensions; cited from earlier work
Cryptococcus = settings: aqueous suspensions; cited from earlier work
Candida = settings: aqueous suspensions; cited from earlier work
water solubility = type: physicochemical

## CCC(C(C)O)n1ncn(-c2ccc(N3CCN(c4ccc(OCC5COC(Cn6cncn6)(c6ccc(F)cc6F)C5)cc4)CC3)cc2)c1=O (single isomer, unassigned; (-)) [antifungal compound]
Aspergillis
  antifungal activity against Aspergillis: potent antifungal activity
Cryptococcus
  antifungal activity against Cryptococcus: potent antifungal activity
Candida
  antifungal activity against Candida: potent antifungal activity
Water solubility
  water solubility: extremely low water solubility

Reference: patent US5834472A (Schering Corporation, priority 1997, dated 1998)
